What all share (assay type): in vivo
In test [1] the test system is cucumber. The test can be described thus: combined application of HYTLO1 and Trichoderma spp. strains on cucumber growth promotion. The conditions noted are these: 20 days after seed coating. On the procedure:
The results are shown in Table 2 and expressed in terms of increased stem and root length or fresh/dry weight. Cucumber seeds were coated with the purified molecule solutions and/or spore suspension, transferred into Petri dishes and left to germinate on humid filter paper. Germinated seedlings were transplanted into pots containing sterilised soil. Other two treatments with the purified molecules were performed at 7 days interval, by drenching the soil with the solutions at the final concentrations of 10^−8M for HYTLO1, and 1 ml of a 10^7 spore/ml suspension per 10 ml soil. In two-compounds application, half dose of each molecule was used. Each treatments was performer on at least 8 plants, and results were collected 20 days after seed coating. This experiment confirmed the beneficial effect exerted by HYTLO1 alone and in combination with Trichoderma species on plant growth. […] In particular, and only as an example, combined treatment with T. harzianum T22+HYTLO1, and T. harzianum strain TH1+HYTLO1 determined a significant increase in plant growth promotion effect of up to 33% more compared to controls (synergistic results as by the Limpel's formula are underlined in the Table).

The test system of the next test is tomato leaves. The test can be described thus: activation of tomato plant defense responses after leaf injection. On the procedure: FIG. 5: Effect of purified HYTLO1 (5 μM) injected on tomato leaves after 48 hours under UV light. Fluorescence is due to accumulation of compounds related to plant defense response.
FIG. 6: Effect of purified HYTLO1 ([…]) on the activation of tomato plant defense responses. Leaves were injected with […] of the protein solution and analyzed after 24 and 48 hours for the production of: (A) anion superoxide (XTT assay, mg p.s.=milligram of dry weight), (B) SOD activity (U/mg proteins), (C) ROOH peroxide accumulation (FOX1 assay), (D) LOX activity, (E) phytoalexin rishitin accumulation (g f.w.=gram of leaf fresh weight). Values are means+S.E. Methods used are the followings. Lyophilized plant tissues (10 mg) from HYTLO1-injected and -non injected tomato leaves were collected at different time points after inoculation (from 6 to 48 h) and homogenized. Anion superoxide was detected by measuring the reduction of 2,3-bis(2-methoxy-4-nitro-5-sulfophenyl)-5-[(phenylamino) carbonyl]-2H-tetrazolium hydroxide (XTT) to formazan, according to Sutherland, M. W., and B. A. Learmonth, 1997, Free Radical Research, 27:283-289, with modifications reported by Castoria, R., et al., 2003, Phytopathology, 93:564-572. Absorbance at 490 nm was measured in a microplate reader. XTT levels were expressed as mean absorbance values mg-1±standard errors. The activities of SOD, pH 7.8 and 10.0 (EC 1.15.1.1) and LOX enzymes (EC 1.13.11.12) were quantified as described by Reverberi M, et al., 2005, Free Radical Research, 39:637-647. Total hydroperoxides (ROOH) were detected by using the FOX spectrophotometric assay by monitoring the oxidation of xylenol orange at 560 nm (Ferrous ion oxidation xylenol orange: FOX-1) (Banerjee D, et al., 2003, Clinica Chimica Acta, 337:147-152). Quantification of the phytoalexins rishitin was performed by treating the leaf samples with methylene chloride (2 ml) in the presence of 100 mg of BHT. The tubes were left in a fume hood for 15/20 minutes and occasionally shaken. The extracts were filtered on filter paper Whatmann 3 MM and dried under nitrogen flow. Rishitin was quantified by GC-MS as described in Fanelli et al., 1992, Natural Toxins 1: 136-146.
FIG. 7: Effect of purified HYTLO1 on the activation of tomato plant defense responses. Leaves were injected with HYTLO1 at the indicated concentrations and analyzed after 48 hours by Real Time PCR for the accumulation of PR (Pathogenesis-Related)-proteins PR1, PR2 and PIN2 RNA (for methods see Tucci M., et al., 2011, Molecular Plant Pathology, 12:341-354) Values indicated the n. of fold increase vs. untreated control.
We analyzed the plant biochemical reaction to HYTLO1, which resulted stimulatory for the formation of the superoxide anion and hydrogen peroxide, for anion superoxide dismutase (SOD) and LOX activity, and the accumulation of the phytoalexin rishitin (FIG. 6).

The test system of test [2] is cucumber. As to the kind of experiment: combined application of HYTLO1, HA and 6PP on cucumber seed germination and growth promotion. On the set-up: Root length, increase % vs. Control / Plant fresh weight, increase % vs. Control / Plant dry weight, increase % vs. Control / plant height, increase % vs. Control: concentration or dose not given beside the values. On the procedure:
Tested metabolites include 6PP and Harzianic Acid, and experiments were performed on seed germination, stem or root elongation as well fresh/dry weight. The results shown in Table 1 were obtained by using cucumber seeds coated with the solutions of the tested compounds, that were then transferred in Petri dishes and left to germinate on filter humid paper. First seed germination was evaluated, then the germinated seedlings were transplanted into pots containing sterilised soil. Other two treatments with the purified molecules were performed at 10 days interval, by drenching the soil with the solutions at the final concentrations of 10^−7M for 6PP and HA, and 10^−8M for HYTLO1. In two-compounds application, half dose of each molecule was used. In three-compound applications, one third of the dose of each molecules was used. Each treatments consisted of 8 plants. Results were collected 30 days after seed coating. Control was produced by adding water instead of the molecule solutions. The effect of the minimal amounts of solvents eventually contained in HA and 6PP solution was preliminary tested, with no differences observed in comparison to water control. The results shown in Table 1 that all of the three tested molecules have a significant beneficial effect on seed germination and plant growth, and that they can be synergistically combined for enhanced effectiveness.

[3] abbreviates: 0.15, 2.5, 5.0 mM, 24 and 48 hours.

Take “HYTLO1: about 7 KDa Type II hydrophobin protein from Trichoderma longibrachiatum strain MK1, 71 aa, SEQ ID NO: 1”: the “plant height (cm), percentage increase compared to water control” value in the test on cucumber [1] (10^−8M HYTLO1, 10^7 spore/ml, half dose in combinations, SD +− 1.5) was determined as 1.8%. For the same substance, in the test with cucumber [1] (SD +− 2.0), the “Root length (cm), percentage increase compared to water control” value stood at 8.5%. The “Plant fresh weight (g), percentage increase compared to water control” value with cucumber [1] (SD +− 2.8) turned out to be 4.2%. Also, the “Plant dry weight (g), percentage increase compared to water control” value in the test on cucumber [1] (SD +− 3.1) is on record as 7.3%. Also, the “accumulation of fluorescent compounds under UV light” value with tomato leaves (5 μM injected on tomato leaves, after 48 hours) is recorded as “accumulation of fluorescent compounds”. Also, in the test with tomato leaves (setting [3]), the LOX activity entry is “stimulatory”; the “accumulation of the phytoalexin rishitin” value was “stimulatory”; the “anion superoxide dismutase (SOD) activity” value is listed as “stimulatory”; the “formation of hydrogen peroxide (ROOH, FOX1 assay)” value was “stimulatory”. The “formation of the superoxide anion (XTT assay)” value in the test with tomato leaves (setting [3]) is “stimulatory”. Also, the “defense responses in leaves distant from the site of application” value with tomato leaves (tomato leaf injection) was “systemic effect”. The “activation of defense-related genes PR1, PR2 and PIN1 (RT-PCR)” value with tomato leaves (tomato leaves, 48 hours) is on record as “induced the activation”. Further, the “Plant dry weight” value in the test on cucumber [2] (30 days after seed coating, SD +− 1.3 g) was found to be 8.4 g. Also, in the test with cucumber [2] (30 days after seed coating, SD +− 2.1 cm), the “Root length (cm)” value is 14.6 cm. Further, the “Plant fresh weight” value in the test with cucumber [2] (30 days after seed coating, SD +− 2.5 g) is reported as 24.76 g. For the same substance, the “plant height (cm)” value with cucumber [2] (30 days after seed coating, drench 10^−7M 6PP and HA, 10^−8M HYTLO1, half or one third dose in combinations, SD +− 2.5 cm) stood at 24.9 cm. For the same substance, in the test on cucumber [2] (coated cucumber seeds on humid filter paper, SD +− 9%), the “Seed germination (24 h)” value was 78%. The “Seed germination (24 h), increase % vs. Control” value in the test with cucumber [2] (vs water control) was “+30%”. In addition, in the test on cucumber [2] (vs water control, 30 days), the “Plant dry weight, increase % vs. Control” value amounted to 51.2%; the “Plant fresh weight, increase % vs. Control” value is given as 34.1%; the “Root length, increase % vs. Control” value was 17.1%.

These data come from US10875898B2, “Bioactive protein, use thereof and method for its production” (Koppert B.V., priority 2014, dated 2020).
